Data published in ChEMBL document CHEMBL4507279, “Data for DCP probe BI-9627” (2021).

Tests used:
[1] = tested on: Epidermal growth factor receptor (Homo sapiens), P00533 [UNDEFINED MUTATION]; details: Compound concentration 1000.0 nM
[2] = molecular target: Cyclin-dependent kinase 4 (Homo sapiens) (UniProt P11802); details: Compound concentration 1000.0 nM
[3] = molecular target: Tyrosine-protein kinase ABL1 (Homo sapiens) (UniProt P00519); details: Compound concentration 1000.0 nM
[4] = molecular target: Serine/threonine-protein kinase 3 (Homo sapiens) (UniProt Q13188); details: Compound concentration 1000.0 nM
[5] = molecular target: Alpha-2B adrenergic receptor (Homo sapiens) (UniProt P18089); details: Compound concentration 10.0 uM
[6] = molecular target: MAP/microtubule affinity-regulating kinase 4 (Homo sapiens) (UniProt Q96L34); details: Compound concentration 1000.0 nM
[7] = molecular target: Mitogen-activated protein kinase kinase kinase 19 (Homo sapiens) (UniProt Q56UN5); details: Compound concentration 1000.0 nM
[8] = molecular target: Serine/threonine-protein kinase LATS1 (Homo sapiens) (UniProt O95835); details: Compound concentration 1000.0 nM
[9] = molecular target: Tyrosine-protein kinase TXK (Homo sapiens) (UniProt P42681); details: Compound concentration 1000.0 nM
Rattus norvegicus = species: Rattus norvegicus; details: Compound concentration 10.0 uM
[10] = molecular target: Tyrosine-protein kinase FRK (Homo sapiens) (UniProt P42685); details: Compound concentration 1000.0 nM
[11] = molecular target: Dual specificity mitogen-activated protein kinase kinase 2 (Homo sapiens) (UniProt P36507); details: Compound concentration 1000.0 nM
[12] = molecular target: Cyclin-dependent kinase 17 (Homo sapiens) (UniProt Q00537); details: Compound concentration 1000.0 nM
[13] = molecular target: Serine/threonine-protein kinase 38-like (Homo sapiens) (UniProt Q9Y2H1); details: Compound concentration 1000.0 nM
[14] = molecular target: Dual specificity protein kinase TTK (Homo sapiens) (UniProt P33981); details: Compound concentration 1000.0 nM
[15] = molecular target: Serine/threonine-protein kinase 25 (Homo sapiens) (UniProt O00506); details: Compound concentration 1000.0 nM
[16] = molecular target: Serine/threonine-protein kinase TBK1 (Homo sapiens) (UniProt Q9UHD2); details: Compound concentration 1000.0 nM
[17] = tested on: Tyrosine-protein kinase ABL1 (Homo sapiens), P00519 [H396P]; details: Compound concentration 1000.0 nM
[18] = tested on: Tyrosine-protein kinase ABL1 (Homo sapiens), P00519 [M351T]; details: Compound concentration 1000.0 nM
[19] = molecular target: Activin receptor type-1-like (Homo sapiens) (UniProt P37023); details: Compound concentration 1000.0 nM
[20] = molecular target: Aurora kinase A (Homo sapiens) (UniProt O14965); details: Compound concentration 1000.0 nM
[21] = molecular target: Calcium/calmodulin-dependent protein kinase type 1 (Homo sapiens) (UniProt Q14012); details: Compound concentration 1000.0 nM
[22] = molecular target: Homeodomain-interacting protein kinase 4 (Homo sapiens) (UniProt Q8NE63); details: Compound concentration 1000.0 nM
[23] = molecular target: Tyrosine-protein kinase Fyn (Homo sapiens) (UniProt P06241); details: Compound concentration 1000.0 nM
[24] = molecular target: Epithelial discoidin domain-containing receptor 1 (Homo sapiens) (UniProt Q08345); details: Compound concentration 1000.0 nM
[25] = molecular target: Non-receptor tyrosine-protein kinase TYK2 (Homo sapiens) (UniProt P29597); details: Compound concentration 1000.0 nM
[26] = tested on: Phosphatidylinositol 4,5-bisphosphate 3-kinase catalytic subunit alpha isoform (Homo sapiens), P42336 [H1047Y]; details: Compound concentration 1000.0 nM
[27] = molecular target: Mitogen-activated protein kinase kinase kinase kinase 5 (Homo sapiens) (UniProt Q9Y4K4); details: Compound concentration 1000.0 nM
[28] = tested on: Receptor-type tyrosine-protein kinase FLT3 (Homo sapiens), P36888 [D835V]; details: Compound concentration 1000.0 nM
[29] = molecular target: Vascular endothelial growth factor receptor 2 (Homo sapiens) (UniProt P35968); details: Compound concentration 1000.0 nM
[30] = molecular target: Calcium/calmodulin-dependent protein kinase type II subunit delta (Homo sapiens) (UniProt Q13557); details: Compound concentration 1000.0 nM
[31] = molecular target: Cyclin-dependent kinase 5 (Homo sapiens) (UniProt Q00535); details: Compound concentration 1000.0 nM
[32] = molecular target: Mitogen-activated protein kinase kinase kinase 10 (Homo sapiens) (UniProt Q02779); details: Compound concentration 1000.0 nM
[33] = molecular target: Ephrin type-B receptor 3 (Homo sapiens) (UniProt P54753); details: Compound concentration 1000.0 nM
[34] = molecular target: T1, Muscarinic acetylcholine receptor M2 (Homo sapiens) (UniProt P08172); details: Compound concentration 10.0 uM
T1 sequence (whole entry): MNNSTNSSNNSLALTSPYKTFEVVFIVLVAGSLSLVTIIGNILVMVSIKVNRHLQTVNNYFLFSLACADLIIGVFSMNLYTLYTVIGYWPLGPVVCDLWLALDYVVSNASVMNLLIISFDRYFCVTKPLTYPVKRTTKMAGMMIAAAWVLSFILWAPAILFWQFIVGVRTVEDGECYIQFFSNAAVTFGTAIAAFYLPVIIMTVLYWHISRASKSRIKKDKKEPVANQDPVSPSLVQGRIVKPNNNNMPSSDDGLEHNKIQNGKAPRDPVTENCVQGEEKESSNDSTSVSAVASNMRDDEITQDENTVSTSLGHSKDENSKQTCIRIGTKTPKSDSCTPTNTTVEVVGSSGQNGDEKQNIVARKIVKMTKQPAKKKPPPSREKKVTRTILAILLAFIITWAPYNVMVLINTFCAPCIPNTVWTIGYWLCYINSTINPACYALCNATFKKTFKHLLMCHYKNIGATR

[35] = molecular target: Serine/threonine-protein kinase PAK 6 (Homo sapiens) (UniProt Q9NQU5); details: Compound concentration 1000.0 nM
[36] = tested on: Epidermal growth factor receptor (Homo sapiens), P00533 [L861Q]; details: Compound concentration 1000.0 nM
[37] = molecular target: Misshapen-like kinase 1 (Homo sapiens) (UniProt Q8N4C8); details: Compound concentration 1000.0 nM
[38] = molecular target: Phosphatidylinositol 4,5-bisphosphate 3-kinase catalytic subunit beta isoform (Homo sapiens) (UniProt P42338); details: Compound concentration 1000.0 nM

Chain of Cyclin-dependent kinase 17 (Homo sapiens) (Q00537 whole entry, looked up): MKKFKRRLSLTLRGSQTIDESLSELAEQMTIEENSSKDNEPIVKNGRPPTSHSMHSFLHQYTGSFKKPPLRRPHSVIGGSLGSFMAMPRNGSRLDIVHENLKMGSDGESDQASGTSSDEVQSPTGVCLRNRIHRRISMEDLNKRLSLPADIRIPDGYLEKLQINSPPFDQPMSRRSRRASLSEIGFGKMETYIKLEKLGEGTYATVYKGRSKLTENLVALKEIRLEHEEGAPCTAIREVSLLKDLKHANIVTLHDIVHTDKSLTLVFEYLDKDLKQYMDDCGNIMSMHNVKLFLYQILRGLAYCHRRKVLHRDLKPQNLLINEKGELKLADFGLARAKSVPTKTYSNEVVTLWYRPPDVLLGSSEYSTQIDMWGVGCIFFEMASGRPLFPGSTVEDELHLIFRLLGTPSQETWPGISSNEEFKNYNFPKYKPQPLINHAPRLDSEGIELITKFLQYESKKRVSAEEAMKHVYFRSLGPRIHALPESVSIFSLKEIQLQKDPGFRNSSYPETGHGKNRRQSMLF
Chain of Mitogen-activated protein kinase kinase kinase 10 (Homo sapiens) (Q02779 whole entry, looked up): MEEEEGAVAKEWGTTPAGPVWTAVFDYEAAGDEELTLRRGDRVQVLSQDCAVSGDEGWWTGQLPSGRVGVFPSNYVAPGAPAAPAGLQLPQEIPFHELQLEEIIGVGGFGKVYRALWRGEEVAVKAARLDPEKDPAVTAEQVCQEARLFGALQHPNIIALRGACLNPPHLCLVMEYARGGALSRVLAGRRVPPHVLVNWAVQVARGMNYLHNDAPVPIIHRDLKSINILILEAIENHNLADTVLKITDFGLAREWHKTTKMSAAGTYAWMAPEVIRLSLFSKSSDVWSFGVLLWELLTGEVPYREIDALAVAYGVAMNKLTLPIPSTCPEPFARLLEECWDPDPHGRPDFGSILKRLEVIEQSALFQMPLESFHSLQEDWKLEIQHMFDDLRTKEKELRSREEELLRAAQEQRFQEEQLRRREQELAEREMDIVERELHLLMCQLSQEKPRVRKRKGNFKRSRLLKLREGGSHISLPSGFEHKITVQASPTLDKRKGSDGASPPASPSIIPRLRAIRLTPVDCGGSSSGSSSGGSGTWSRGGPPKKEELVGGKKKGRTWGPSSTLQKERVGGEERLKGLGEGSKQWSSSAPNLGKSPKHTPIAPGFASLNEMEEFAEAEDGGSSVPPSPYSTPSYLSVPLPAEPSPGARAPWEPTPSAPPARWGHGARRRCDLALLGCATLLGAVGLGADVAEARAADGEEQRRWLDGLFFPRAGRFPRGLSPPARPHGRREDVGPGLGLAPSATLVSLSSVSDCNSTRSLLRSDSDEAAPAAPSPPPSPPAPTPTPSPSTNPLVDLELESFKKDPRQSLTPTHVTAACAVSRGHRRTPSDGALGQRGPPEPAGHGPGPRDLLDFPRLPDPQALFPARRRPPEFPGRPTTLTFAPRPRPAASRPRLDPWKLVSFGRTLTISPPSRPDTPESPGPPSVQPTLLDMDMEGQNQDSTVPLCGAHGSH
Chain of Phosphatidylinositol 4,5-bisphosphate 3-kinase catalytic subunit alpha isoform (Homo sapiens), P42336 [H1047Y] (P42336 whole entry H1047Y, canonical isoform): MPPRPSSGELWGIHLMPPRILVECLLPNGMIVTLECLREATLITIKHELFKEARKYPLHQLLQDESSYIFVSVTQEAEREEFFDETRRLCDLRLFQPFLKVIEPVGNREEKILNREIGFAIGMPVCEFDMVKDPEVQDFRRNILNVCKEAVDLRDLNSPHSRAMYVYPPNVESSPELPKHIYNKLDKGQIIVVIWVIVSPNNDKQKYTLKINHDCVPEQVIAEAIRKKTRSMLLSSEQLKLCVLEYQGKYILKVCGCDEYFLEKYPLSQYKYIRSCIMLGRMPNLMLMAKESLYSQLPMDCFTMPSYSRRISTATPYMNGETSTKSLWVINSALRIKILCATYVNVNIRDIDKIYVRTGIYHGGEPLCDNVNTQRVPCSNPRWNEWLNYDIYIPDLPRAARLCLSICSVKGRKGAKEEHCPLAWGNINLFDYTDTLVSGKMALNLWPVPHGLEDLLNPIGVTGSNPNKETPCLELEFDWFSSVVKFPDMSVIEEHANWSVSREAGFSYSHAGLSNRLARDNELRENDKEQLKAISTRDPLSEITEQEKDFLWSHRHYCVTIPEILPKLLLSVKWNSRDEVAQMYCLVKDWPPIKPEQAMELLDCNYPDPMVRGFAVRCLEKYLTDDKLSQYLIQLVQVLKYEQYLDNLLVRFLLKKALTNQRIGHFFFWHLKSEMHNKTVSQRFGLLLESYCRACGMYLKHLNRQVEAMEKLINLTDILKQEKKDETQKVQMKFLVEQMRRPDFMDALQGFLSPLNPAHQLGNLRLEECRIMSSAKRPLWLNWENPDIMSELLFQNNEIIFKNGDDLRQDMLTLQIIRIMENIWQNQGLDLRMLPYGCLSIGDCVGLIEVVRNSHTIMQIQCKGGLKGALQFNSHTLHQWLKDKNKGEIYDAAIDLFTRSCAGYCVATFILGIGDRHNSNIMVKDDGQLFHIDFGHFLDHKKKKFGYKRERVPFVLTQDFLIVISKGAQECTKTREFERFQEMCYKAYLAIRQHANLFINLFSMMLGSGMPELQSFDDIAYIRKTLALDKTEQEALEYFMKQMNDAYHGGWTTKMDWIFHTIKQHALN
Chain of Calcium/calmodulin-dependent protein kinase type 1 (Homo sapiens) (Q14012 whole entry, looked up): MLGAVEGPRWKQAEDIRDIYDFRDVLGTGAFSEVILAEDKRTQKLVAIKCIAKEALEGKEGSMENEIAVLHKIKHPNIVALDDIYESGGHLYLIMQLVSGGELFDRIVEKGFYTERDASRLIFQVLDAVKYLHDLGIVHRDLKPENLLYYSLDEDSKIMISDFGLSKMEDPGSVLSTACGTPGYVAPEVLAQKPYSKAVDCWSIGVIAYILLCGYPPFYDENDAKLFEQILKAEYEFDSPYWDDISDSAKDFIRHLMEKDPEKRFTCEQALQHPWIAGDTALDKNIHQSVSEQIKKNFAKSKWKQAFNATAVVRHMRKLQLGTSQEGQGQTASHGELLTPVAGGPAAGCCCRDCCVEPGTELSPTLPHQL
Chain of Serine/threonine-protein kinase 3 (Homo sapiens) (Q13188 whole entry): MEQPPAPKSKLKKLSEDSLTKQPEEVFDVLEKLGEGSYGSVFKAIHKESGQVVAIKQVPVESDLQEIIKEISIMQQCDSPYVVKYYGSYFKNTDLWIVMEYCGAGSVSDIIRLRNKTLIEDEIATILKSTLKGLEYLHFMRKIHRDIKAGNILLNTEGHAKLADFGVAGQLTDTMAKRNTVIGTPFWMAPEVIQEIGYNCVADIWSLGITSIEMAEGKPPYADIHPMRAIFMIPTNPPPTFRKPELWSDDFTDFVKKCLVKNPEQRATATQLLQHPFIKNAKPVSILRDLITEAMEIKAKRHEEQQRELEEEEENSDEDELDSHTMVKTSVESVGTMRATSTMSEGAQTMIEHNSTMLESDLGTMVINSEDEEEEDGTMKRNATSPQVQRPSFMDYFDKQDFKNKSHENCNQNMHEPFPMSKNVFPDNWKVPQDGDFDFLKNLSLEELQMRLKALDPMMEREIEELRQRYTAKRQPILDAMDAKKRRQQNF
Chain of Serine/threonine-protein kinase LATS1 (Homo sapiens) (O95835 whole entry): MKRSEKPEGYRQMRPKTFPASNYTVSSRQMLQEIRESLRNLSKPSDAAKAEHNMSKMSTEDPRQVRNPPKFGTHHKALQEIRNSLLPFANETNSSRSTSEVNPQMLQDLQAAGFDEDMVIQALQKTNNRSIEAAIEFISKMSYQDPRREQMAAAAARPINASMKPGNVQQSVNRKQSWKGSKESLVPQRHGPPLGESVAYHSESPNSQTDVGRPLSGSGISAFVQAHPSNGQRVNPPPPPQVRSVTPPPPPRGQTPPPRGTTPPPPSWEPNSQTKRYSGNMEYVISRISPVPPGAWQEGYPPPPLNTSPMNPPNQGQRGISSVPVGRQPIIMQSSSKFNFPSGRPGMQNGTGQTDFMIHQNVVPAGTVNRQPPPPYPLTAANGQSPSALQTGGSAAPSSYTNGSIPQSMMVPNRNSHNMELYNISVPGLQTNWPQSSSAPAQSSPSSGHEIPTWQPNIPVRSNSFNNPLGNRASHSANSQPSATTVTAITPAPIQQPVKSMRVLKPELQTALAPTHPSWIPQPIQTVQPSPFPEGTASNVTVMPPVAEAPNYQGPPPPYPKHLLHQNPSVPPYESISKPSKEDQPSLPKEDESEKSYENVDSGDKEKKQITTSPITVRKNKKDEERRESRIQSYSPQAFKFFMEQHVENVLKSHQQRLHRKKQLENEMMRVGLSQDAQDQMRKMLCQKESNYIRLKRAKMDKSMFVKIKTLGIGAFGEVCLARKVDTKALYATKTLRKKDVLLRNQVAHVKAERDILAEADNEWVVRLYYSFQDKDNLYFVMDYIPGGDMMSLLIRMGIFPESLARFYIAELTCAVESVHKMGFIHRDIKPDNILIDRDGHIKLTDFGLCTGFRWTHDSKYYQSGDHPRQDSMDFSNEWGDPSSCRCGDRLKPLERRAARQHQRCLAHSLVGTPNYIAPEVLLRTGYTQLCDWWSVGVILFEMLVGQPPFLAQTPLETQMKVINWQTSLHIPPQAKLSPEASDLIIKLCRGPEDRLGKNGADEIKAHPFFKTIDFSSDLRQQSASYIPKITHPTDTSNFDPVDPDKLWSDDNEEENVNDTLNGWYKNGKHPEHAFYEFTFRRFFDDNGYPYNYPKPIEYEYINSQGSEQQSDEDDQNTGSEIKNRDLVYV
Chain of Aurora kinase A (Homo sapiens) (O14965 whole entry): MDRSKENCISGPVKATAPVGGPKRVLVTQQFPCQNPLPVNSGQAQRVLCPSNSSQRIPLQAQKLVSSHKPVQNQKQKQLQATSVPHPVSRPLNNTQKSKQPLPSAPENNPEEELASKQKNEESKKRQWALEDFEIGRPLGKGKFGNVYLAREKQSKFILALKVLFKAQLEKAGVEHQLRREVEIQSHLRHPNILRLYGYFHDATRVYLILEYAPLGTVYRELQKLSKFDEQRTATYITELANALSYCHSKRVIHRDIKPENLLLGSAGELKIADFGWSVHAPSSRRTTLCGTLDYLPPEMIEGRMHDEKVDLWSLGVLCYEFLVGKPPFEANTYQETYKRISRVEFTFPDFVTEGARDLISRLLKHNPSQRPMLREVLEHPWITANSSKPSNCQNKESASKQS

CC(=O)N1CCC(c2ccc(C(=O)NC3=NCCN3)cc2C(F)(F)F)CC1 [BI 0054]
inactive: residual activity [1] 100% | residual activity [2] 94% | residual activity [3] 95% | residual activity [4] 100% | inhibition [5] 1.01% | residual activity [6] 100% | residual activity [7] 100% | residual activity [8] 93% | residual activity [9] 82% | inhibition (Rattus norvegicus) -2.17% | residual activity [10] 97% | residual activity [11] 100% | residual activity [12] 89% | residual activity [13] 90% | residual activity [14] 100% | residual activity [15] 100% | residual activity [16] 98% | residual activity [17] 100% | residual activity [18] 100% | residual activity [19] 100% | residual activity [20] 100% | residual activity [21] 100% | residual activity [22] 100% | residual activity [23] 76% | residual activity [24] 100% | residual activity [25] 100% | residual activity [26] 100% | residual activity [27] 100% | residual activity [28] 97% | residual activity [29] 80% | residual activity [30] 100% | residual activity [31] 100% | residual activity [32] 100% | residual activity [33] 93% | inhibition [34] -0.799% | residual activity [35] 100% | residual activity [36] 100% | residual activity [37] 100% | residual activity [38] 100%

CC(=O)N1CCC(c2ccc(C(=O)NC(=N)N)cc2C(F)(F)F)CC1 [BI 9627]
inactive: residual activity [1] 100% | residual activity [2] 97% | residual activity [3] 93% | residual activity [4] 100% | inhibition [5] 6.29% | residual activity [6] 100% | residual activity [7] 100% | residual activity [8] 72% | residual activity [9] 100% | inhibition (Rattus norvegicus) 6.39% | residual activity [10] 100% | residual activity [11] 96% | residual activity [12] 100% | residual activity [13] 99% | residual activity [14] 100% | residual activity [15] 100% | residual activity [16] 100% | residual activity [17] 60% | residual activity [18] 100% | residual activity [19] 100% | residual activity [20] 87% | residual activity [21] 100% | residual activity [22] 100% | residual activity [23] 100% | residual activity [24] 83% | residual activity [25] 100% | residual activity [26] 100% | residual activity [27] 100% | residual activity [28] 92% | residual activity [29] 93% | residual activity [30] 100% | residual activity [31] 87% | residual activity [32] 95% | residual activity [33] 97% | inhibition [34] 23.5% | residual activity [35] 100% | residual activity [36] 91% | residual activity [37] 95% | residual activity [38] 100%
